Test results published in article PMC10819243 (Pharmaceutics, 2024).
Read-outs that look alike come from different tables or passages of the source.

Key:
HeLa [1] = conditions: most active derivatives published earlier; read-out: Cell Line, IC50 [ μM] HeLa; cited from earlier work
KB [2] = conditions: most active derivatives published earlier; read-out: Cell Line, IC50 [ μM] KB; cited from earlier work
MCF-7 [3] = conditions: most active derivatives published earlier; read-out: Cell Line, IC50 [ μM] MCF-7; cited from earlier work
HeLa [4] = experiment: MTT assay, HeLa; format: cell-based; conditions: for IC50: Homo sapiens, MTT assay, HeLa cervix carcinoma, (±s) standard deviation; for Selectivity Index HeLa: IC50 for normal cell line (HDF)/IC50 for HeLa
KB [5] = experiment: MTT assay, KB; format: cell-based; conditions: for IC50: Homo sapiens, MTT assay, KB nasopharynx carcinoma, (±s) standard deviation; for Selectivity Index KB: IC50 for normal cell line (HDF)/IC50 for KB
MCF-7 [6] = experiment: MTT assay, MCF-7; format: cell-based; conditions: for IC50: Homo sapiens, MCF7, MTT assay, MCF-7 breast carcinoma, (±s) standard deviation; for Selectivity Index MCF-7: IC50 for normal cell line (HDF)/IC50 for MCF-7
A-549 = experiment: MTT assay, A-549; format: cell-based; conditions: for IC50: Homo sapiens, A549, MTT assay, A-549 lung carcinoma, (±s) standard deviation; for Selectivity Index A-549: IC50 for normal cell line (HDF)/IC50 for A-549
[7] = test system: HDF (normal fibroblast cell line); experiment: MTT assay, HDF; format: cell-based, human; conditions: for IC50: Homo sapiens, Fibroblast, MTT assay, HDF normal fibroblast cell line, (±s) standard deviation
[8] = test system: HeLa, KB, MCF-7, A-549 and HDF cell lines; experiment: MTT assay, statements over several tested cell lines; format: cell-based; conditions: for IC50: summary over the tested cell lines, read-out: IC50 values for the tested cell lines (range or summary); for times less active than mother OA (1): over the tested cell lines
U-87MG cells = experiment: Apoptosis assay (DNA fragmentation), U-87MG; format: cell-based
Source text: (§1) The necrosis process induced by all the tested compounds was very small.

[9] = test system: U-87MG, MCF-7, and HeLa cancer cell lines; experiment: Apoptosis assay, all cancer cell lines; format: cell-based
Source text: as §1

[10] = ratio of IC50 values vs oleanolic acid (1)

SMILES: COC(=O)C12CCC(C)(C)CC1C1C(=NOC(=O)c3ccccc3[N+](=O)[O-])CC3C4(C)CCC(OC(C)=O)C(C)(C)C4CCC3(C)C1(C)CC2 (centres unmarked) [8e [22]]
- IC50 (HeLa [1]): 9.84 µM
- IC50 (KB [2]): > 10 µM
- IC50 (MCF-7 [3]): 9.28 µM

SMILES: CC1(C)CCC2(C(=O)N3CCOCC3)CCC3(C)C(=CCC4C5(C)CCC(=NO)C(C)(C)C5CCC43C)C2C1 (centres unmarked) [Compound 4]
- IC50 (HeLa [4]): 8.72 µM
- Selectivity Index HeLa (HeLa [4]): 1.60
- IC50 (KB [5]): 8.72 µM
- Selectivity Index KB (KB [5]): 1.60
- IC50 (MCF-7 [6]): 7.42 µM
- Selectivity Index MCF-7 (MCF-7 [6]): 1.88
- IC50 (A-549): 7.29 µM
- Selectivity Index A-549 (A-549): 1.91
- IC50 [7]: 13.9 µM
- IC50 [8]: 7 to 8 µM
- IC50 (HeLa [1]): 1.8 µM
- IC50 (KB [2]): 1.74 µM
- IC50 (MCF-7 [3]): 1.6 µM

SMILES: COC(=O)C12CCC(C)(C)CC1C1C(=NOC(=O)CCl)CC3C4(C)CCC(OC(C)=O)C(C)(C)C4CCC3(C)C1(C)CC2 (centres unmarked) [8b [22]]
- IC50 (HeLa [1]): 9.19 µM
- IC50 (KB [2]): 9.42 µM
- IC50 (MCF-7 [3]): 7.26 µM

SMILES: COC(=O)[C@]12CCC(C)(C)CC1C1=CCC3[C@@]4(C)CC/C(=N\OC(=O)c5cc([N+](=O)[O-])cc([N+](=O)[O-])c5)C(C)(C)C4CC[C@@]3(C)[C@]1(C)CC2 (some centres unmarked) [Compound 5g, 3-(3′,5′-Dinitro)benzoxyiminoolean-12-en-28-oic acid methyl ester]
- IC50 (HeLa [4]): 4.19 µM
- Selectivity Index HeLa (HeLa [4]): 1.48
- fold as active as OA (1), HeLa (HeLa [4]; [10]): ~3 fold
- IC50 (KB [5]): 4.61 µM
- Selectivity Index KB (KB [5]): 1.35
- fold as active as OA (1), KB (KB [5]; [10]): 3.2 fold
- IC50 (MCF-7 [6]): 5.18 µM
- Selectivity Index MCF-7 (MCF-7 [6]): 1.20
- fold as active as OA (1), MCF-7 (MCF-7 [6]; [10]): ~3 fold
- IC50 (A-549): 4.82 µM
- Selectivity Index A-549 (A-549): 1.29
- fold as active as OA (1), A-549 (A-549; [10]): ~2 fold
- IC50 [7]: 6.22 µM
- fold as active as OA (1), HDF ([7]; ratio of IC50 values vs oleanolic acid (1), normal cell line): ~3 fold
- IC50 [8]: 4.19 to 8.98 µM
- increase in DNA fragmentation (U-87MG cells; 0.1 µg/mL): 2.5 fold
- increase in DNA fragmentation (U-87MG cells; 1.0 µg/mL): 4.2 fold

SMILES: CC1(C)CC[C@]2(C(=O)N3CCOCC3)CC[C@]3(C)C(=CCC4[C@@]5(C)CC/C(=N\OC(=O)c6cc([N+](=O)[O-])cc([N+](=O)[O-])c6)C(C)(C)C5CC[C@]43C)C2C1 (some centres unmarked) [Compound 7g, 3-(3′,5′-Dinitro)benzoxyiminoolean-12-en-28-oic acid morpholide]
- IC50 (HeLa [4]): 6.24 µM
- Selectivity Index HeLa (HeLa [4]): 1.47
- IC50 (KB [5]): 6.01 µM
- Selectivity Index KB (KB [5]): 1.52
- IC50 (MCF-7 [6]): 7.27 µM
- Selectivity Index MCF-7 (MCF-7 [6]): 1.26
- IC50 (A-549): 6.52 µM
- Selectivity Index A-549 (A-549): 1.40
- IC50 [7]: 9.16 µM
- IC50 [8]: 4.19 to 8.98 µM
- increase in induction of apoptosis ([9]; 0.1 µg/mL): 2.3 fold
- increase in induction of apoptosis ([9]; 1.0 µg/mL): 2.6 fold
- increase in induction of apoptosis ([9]; 10 µg/mL): 3.8 fold

SMILES: CCC(=O)ON=C1C[C@@H]2[C@@]3(C)CC[C@H](OC(C)=O)C(C)(C)[C@@H]3CC[C@@]2(C)[C@]2(C)CC[C@@]3(C(=O)OC)CCC(C)(C)C[C@H]3[C@@H]12 [8d [22]]
- IC50 (HeLa [1]): 1.87 µM
- IC50 (KB [2]): 0.72 µM
- IC50 (MCF-7 [3]): 2.13 µM

SMILES: COC(=O)[C@]12CCC(C)(C)CC1C1=CCC3[C@@]4(C)CC/C(=N\OC(=O)CCl)C(C)(C)C4CC[C@@]3(C)[C@]1(C)CC2 (some centres unmarked) [Compound 5b, 3-Chloroacetoxyiminoolean-12-en-28-oic acid methyl ester]
- IC50 (HeLa [4]): 19.8 µM
- Selectivity Index HeLa (HeLa [4]): 1.87
- IC50 (KB [5]): 18.4 µM
- Selectivity Index KB (KB [5]): 2.01
- IC50 (MCF-7 [6]): 18 µM
- Selectivity Index MCF-7 (MCF-7 [6]): 2.05
- IC50 (A-549): 19.8 µM
- Selectivity Index A-549 (A-549): 1.87
- IC50 [7]: 37 µM
- times less active than mother OA (1) [8]: 1.7–2.2 fold

SMILES: COC(=O)C12CCC(C)(C)CC1C1=CC(=O)C3C4(C)CCC(=NO)C(C)(C)C4CCC3(C)C1(C)CC2 (centres unmarked) [Compound 3]
- IC50 (HeLa [4]): 125 µM
- Selectivity Index HeLa (HeLa [4]): 0.49
- IC50 (KB [5]): 60.3 µM
- Selectivity Index KB (KB [5]): 1.01
- IC50 (MCF-7 [6]): 48.4 µM
- Selectivity Index MCF-7 (MCF-7 [6]): 1.26
- IC50 (A-549): 63 µM
- Selectivity Index A-549 (A-549): 0.97
- IC50 [7]: 61 µM
- IC50 (HeLa [1]): 5.03 µM
- IC50 (KB [2]): 6.19 µM
- IC50 (MCF-7 [3]): > 10 µM

SMILES: CCC(=O)O/N=C1\CC[C@@]2(C)C(CC[C@]3(C)C2CC=C2C4CC(C)(C)CC[C@]4(C(=O)OC)CC[C@]23C)C1(C)C (some centres unmarked) [Compound 5c, 3-Propionoxyiminoolean-12-en-28-oic acid methyl ester]
- IC50 (HeLa [4]): 38.1 µM
- Selectivity Index HeLa (HeLa [4]): 1.05
- IC50 (KB [5]): 38.8 µM
- Selectivity Index KB (KB [5]): 1.03
- IC50 (MCF-7 [6]): 38.1 µM
- Selectivity Index MCF-7 (MCF-7 [6]): 1.05
- IC50 (A-549): 36.2 µM
- Selectivity Index A-549 (A-549): 1.10
- IC50 [7]: 39.9 µM
- times less active than mother OA (1) [8]: 2.2–4.1 fold

SMILES: COC(=O)[C@]12CCC(C)(C)CC1C1=CC(=O)C3[C@@]4(C)CC/C(=N\OC(=O)c5cc([N+](=O)[O-])cc([N+](=O)[O-])c5)C(C)(C)C4CC[C@@]3(C)[C@]1(C)CC2 (some centres unmarked) [Compound 6g, 3-(3′,5′-Dinitro)benzoxyimino-11-oxoolean-12-en-28-oic acid methyl ester]
- IC50 (HeLa [4]): 6.11 µM
- Selectivity Index HeLa (HeLa [4]): 1.19
- IC50 (KB [5]): 8.98 µM
- Selectivity Index KB (KB [5]): 0.81
- IC50 (MCF-7 [6]): 6.62 µM
- Selectivity Index MCF-7 (MCF-7 [6]): 1.10
- IC50 (A-549): 5.39 µM
- Selectivity Index A-549 (A-549): 1.34
- IC50 [7]: 7.27 µM
- IC50 [8]: 5.39 to 8.98 µM
- increase in induction of apoptosis ([9]; 0.1 µg/mL): 1.7 fold
- increase in induction of apoptosis ([9]; 1.0 µg/mL): 2.4 fold
- increase in induction of apoptosis ([9]; 10 µg/mL): 2.9 fold

SMILES: COC(=O)C12CCC(C)(C)CC1C1C(=NOC(=O)CBr)CC3C4(C)CCC(OC(C)=O)C(C)(C)C4CCC3(C)C1(C)CC2 (centres unmarked) [8c [22]]
- IC50 (HeLa [1]): 4.41 µM
- IC50 (KB [2]): 4.9 µM
- IC50 (MCF-7 [3]): 3.76 µM

SMILES: CCC(=O)O/N=C1\CC[C@@]2(C)C(CC[C@]3(C)C2CC=C2C4CC(C)(C)CC[C@]4(C(=O)N4CCOCC4)CC[C@]23C)C1(C)C (some centres unmarked) [Compound 7c, 3-Propionoxyimino-olean-12-en-28-oic acid morpholide]
- IC50 (HeLa [4]): 143 µM
- Selectivity Index HeLa (HeLa [4]): 1.27
- IC50 (KB [5]): 150 µM
- Selectivity Index KB (KB [5]): 1.20
- IC50 (MCF-7 [6]): 153 µM
- Selectivity Index MCF-7 (MCF-7 [6]): 1.17
- IC50 (A-549): 148 µM
- Selectivity Index A-549 (A-549): 1.21
- IC50 [7]: 179 µM
- IC50 [8]: 140 to 180 µM
